Source: patent US20250059196A1 (SHANGHAI HANSOH BIOMEDICAL CO., LTD., priority 2021, published 2025)

Tests used:
[1] = Pharmacokinetics of oral administration in Balb/C mice; format: in vivo; conditions: male, mouse, po, 30 mg/kg, P.O., plasma; for AUC(0-t): read-out: AUC 0-t; for Cmax: read-out: Cmax; for MRT: read-out: MRT; for Tmax: read-out: Tmax
Summary of the method: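 Male Balb/C mice (n=3), fasted overnight, dosed orally at 30 mg/kg. Orbital plasma sampled at 0, 0.5, 1, 2, 4, 6, 8 and 24 h, acetonitrile-precipitated, and analysed by LC/MS/MS (C18, formic acid/acetonitrile); PK parameters by non-compartmental-style software analysis.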

[2] = Caco-2 bidirectional permeability test; conditions: human, Caco-2
Experimental: The purpose of this experiment is to test the bidirectional permeability of the compound through the Caco-2 cell model and evaluate whether the compound is transported by efflux transporters.
Liquid chromatography-mass spectrometer, centrifuge, vortexer, pipette, 96-well test plate (HTS Transwell Plate), acetonitrile solution containing internal standard, Caco-2 cells (ATCC), Hank's balance solution (HBSS), fluorescent yellow (LY), dimethyl sulfoxide (DMSO).
108 μL of transport buffer (HBSS containing 10 μM of the example compound) was added to the administration end of A to B. • b. 300 μL of transport buffer (HBSS containing DMSO) was added to the receiving end of A to B. • c. 300 μL of transport buffer (HBSS containing 10 μM example compound) was added to the administration end of A to B. • d. 108 μL of transport buffer (HBSS containing DMSO) was added to the receiving end of A to B. • e. incubation was performed for 90 min. • d. a sample was taken, processed and detected with mass spectrometry.
• Instruments: Liquid Chromatography; • Chromatographic column: Waters XSelect HSS T3 2.5 μm (2.1×50 mm); • Mobile phase: Phase A: 0.1% formic acid in pure water; Phase B: 0.1% formic acid in acetonitrile.
• Instruments: AP16500+liquid chromatography-mass spectrometer; • The ion source is electrospray ionization source (ESI); • The detection method is positive ion detection;
The scanning method is selected reaction monitoring (MRM).

AUC(0-inf) [1] [µg·h/mL] | half-life [1] [h] | AUC(0-t) [1] [µg·h/mL] | Cmax [1] [ng/mL] | MRT [1] [h] | Tmax [1] [h] | Papp A→B at 90 min, 10 µM [2] [×10⁻⁶ cm/s] | Papp B→A at 90 min, 10 µM [2] [×10⁻⁶ cm/s] | efflux ratio at 90 min, 10 µM [2] | Compound
472 | 8.6 | 401 | 28300 | 12.2 | 4 | 2.09 | 4.08 | 1.97 | O=C(Nc1ccnc(C(F)(F)F)c1)c1cnn(-c2ccc3c4c(cccc24)C(=O)N3)c1C1CC1 [Example 55, 5-cyclopropyl-1-(2-oxo-1,2-dihydrobenzo[cd]indol-6-yl)-N-(2-(trifluoromethyl)pyridin-4-yl)-1H-pyrazole-4-carboxamide]
– | – | 256 | 14100 | – | 8 | 1.58 | 4.68 | 2.95 | O=C(Nc1ccc(-n2nccn2)c(Cl)c1)c1cnn(-c2ccc3c4c(cccc24)C(=O)N3)c1C(F)(F)F [Example 53, N-(3-chloro-4-(2H-1,2,3-triazol-2-yl)phenyl)-1-(2-oxo-1,2-dihydrobenzo[cd]indol-6-yl)-5-(trifluoromethyl)-1H-pyrazole-4-carboxamide]
222 | 1.9 | 222 | 22900 | 5.4 | 2 | – | – | – | O=C(Nc1cnc(-n2nccn2)c(C(F)(F)F)c1)c1cnn(-c2ccc3c4c(cccc24)C(=O)N3)c1C(F)(F)F [Example 18, N-(6-(2H-1,2,3-triazol-2-yl)-5-trifluoromethylpyridin-3-yl)-1-(2-oxo-1,2-dihydrobenzo[cd]indol-6-yl)-5-trifluoromethyl-1H-pyrazole-4-carboxamide]
